Legend:
A549 [1] = test: Antiproliferative activity against human A549 cells assessed as reduction in cell growth at 8 uM incubated for 72 hrs by CCK-8 assay relative to control; type: functional; conditions: A549, 72 h
A549 [2] = test: Antiproliferative activity against human A549 cells assessed as reduction in cell growth at 2 uM incubated for 72 hrs by CCK-8 assay relative to control; type: functional; conditions: A549, 72 h
A-375 [3] = test: Antiproliferative activity against human A375 cells assessed as reduction in cell growth incubated for 72 hrs by CCK-8 assay; type: functional, cell-based; conditions: A-375, 72 h
SMMC-7721 [4] = test: Antiproliferative activity against human SMMC7721 cells assessed as reduction in cell growth incubated for 72 hrs by CCK-8 assay; type: functional, cell-based; conditions: SMMC-7721, 72 h
A-375 [5] = test: Antiproliferative activity against human A375 cells assessed as reduction in cell growth at 8 uM incubated for 72 hrs by CCK-8 assay relative to control; type: functional; conditions: A-375, 72 h
SMMC-7721 [6] = test: Antiproliferative activity against human SMMC7721 cells assessed as reduction in cell growth at 8 uM incubated for 72 hrs by CCK-8 assay relative to control; type: functional; conditions: SMMC-7721, 72 h
HeLa [7] = test: Antiproliferative activity against human HeLa cells assessed as reduction in cell growth incubated for 72 hrs by CCK-8 assay; type: functional, cell-based
HCT-116 [8] = test: Antiproliferative activity against human HCT116 cells assessed as reduction in cell growth incubated for 72 hrs by CCK-8 assay; type: functional, cell-based; conditions: HCT-116, 72 h
HCT-116 [9] = test: Antiproliferative activity against human HCT116 cells assessed as reduction in cell growth at 2 uM incubated for 72 hrs by CCK-8 assay relative to control; type: functional; conditions: HCT-116, 72 h
HCT-116 [10] = test: Antiproliferative activity against human HCT116 cells assessed as reduction in cell growth at 8 uM incubated for 72 hrs by CCK-8 assay relative to control; type: functional; conditions: HCT-116, 72 h
HeLa [11] = test: Antiproliferative activity against human HeLa cells assessed as reduction in cell growth at 2 uM incubated for 72 hrs by CCK-8 assay relative to control; type: functional
HeLa [12] = test: Antiproliferative activity against human HeLa cells assessed as reduction in cell growth at 8 uM incubated for 72 hrs by CCK-8 assay relative to control; type: functional
A-375 [13] = test: Antiproliferative activity against human A375 cells assessed as reduction in cell growth at 2 uM incubated for 72 hrs by CCK-8 assay relative to control; type: functional; conditions: A-375, 72 h
SMMC-7721 [14] = test: Antiproliferative activity against human SMMC7721 cells assessed as reduction in cell growth at 2 uM incubated for 72 hrs by CCK-8 assay relative to control; type: functional; conditions: SMMC-7721, 72 h
A549 [15] = test: Antiproliferative activity against human A549 cells assessed as reduction in cell growth incubated for 72 hrs by CCK-8 assay; type: functional, cell-based; conditions: A549, 72 h

Cc1ccc2c(=O)n(C)c(SCc3ccc(C(=O)Nc4ccccc4N)cc3)nc2c1
inhibition at 8 µM (A549 [1]): 52.7%
inhibition at 2 µM (A549 [2]): 23.3%
IC50 (A-375 [3]): 1190 nM
IC50 (SMMC-7721 [4]): 3620 nM
inhibition at 8 µM (A-375 [5]): 88.2%
inhibition at 8 µM (SMMC-7721 [6]): 78.9%
IC50 (HeLa [7]): 3120 nM
IC50 (HCT-116 [8]): 2470 nM
inhibition at 2 µM (HCT-116 [9]): 59.8%
inhibition at 8 µM (HCT-116 [10]): 74.9%
inhibition at 2 µM (HeLa [11]): 59.8%
inhibition at 8 µM (HeLa [12]): 84.3%
inhibition at 2 µM (A-375 [13]): 52.9%
inhibition at 2 µM (SMMC-7721 [14]): 41.7%

Cn1c(SCc2ccc(C(=O)Nc3ccccc3N)cc2)nc2cc(Cl)ccc2c1=O
inhibition at 8 µM (A549 [1]): 22.3%
inhibition at 2 µM (A549 [2]): 21.8%
IC50 (A-375 [3]): 3010 nM
IC50 (SMMC-7721 [4]): 3320 nM
inhibition at 8 µM (A-375 [5]): 51.2%
inhibition at 8 µM (SMMC-7721 [6]): 73.2%
IC50 (HeLa [7]): 4990 nM
IC50 (HCT-116 [8]): 2220 nM
inhibition at 2 µM (HCT-116 [9]): 58.7%
inhibition at 8 µM (HCT-116 [10]): 81.5%
inhibition at 2 µM (HeLa [11]): 51.1%
inhibition at 8 µM (HeLa [12]): 76.5%
inhibition at 2 µM (A-375 [13]): 44.5%
inhibition at 2 µM (SMMC-7721 [14]): 38.9%

Cn1c(SCc2ccc(C(=O)Nc3ccccc3N)cc2)nc2cc(F)ccc2c1=O
inhibition at 8 µM (A549 [1]): 45%
inhibition at 2 µM (A549 [2]): 21.3%
IC50 (A-375 [3]): 3280 nM
IC50 (SMMC-7721 [4]): 900 nM
inhibition at 8 µM (A-375 [5]): 64.3%
inhibition at 8 µM (SMMC-7721 [6]): 75.1%
IC50 (HeLa [7]): 4810 nM
IC50 (HCT-116 [8]): 2710 nM
inhibition at 2 µM (HCT-116 [9]): 51.7%
inhibition at 8 µM (HCT-116 [10]): 79.7%
inhibition at 2 µM (HeLa [11]): 39.7%
inhibition at 8 µM (HeLa [12]): 84.6%
inhibition at 2 µM (A-375 [13]): 30%
inhibition at 2 µM (SMMC-7721 [14]): 52.5%

Cn1c(SCc2ccc(/C=C/C(=O)Nc3ccccc3N)cc2)nc2cc(Cl)ccc2c1=O
inhibition at 8 µM (A549 [1]): 68.8%
inhibition at 2 µM (A549 [2]): 15.5%
IC50 (A549 [15]): 16400 nM
inhibition at 8 µM (A-375 [5]): 10.2%
inhibition at 8 µM (SMMC-7721 [6]): 20.9%
inhibition at 2 µM (HCT-116 [9]): 2.1%
inhibition at 8 µM (HCT-116 [10]): 21.5%
inhibition at 2 µM (HeLa [11]): 29.3%
inhibition at 8 µM (HeLa [12]): 38.8%
inhibition at 2 µM (A-375 [13]): 2.4%
inhibition at 2 µM (SMMC-7721 [14]): 7.8%

COc1ccc2c(=O)n(CCCC[S+](C)[O-])c(SCc3ccc(/C=C/C(=O)Nc4ccccc4N)cc3)nc2c1 (configuration not stated)
inhibition at 8 µM (A549 [1]): 62.7%
inhibition at 2 µM (A549 [2]): 53.8%
IC50 (A549 [15]): 20000 nM
inhibition at 8 µM (A-375 [5]): 18.8%
inhibition at 8 µM (SMMC-7721 [6]): 9.9%
inhibition at 2 µM (HCT-116 [9]): 4.5%
inhibition at 8 µM (HCT-116 [10]): 8.6%
inhibition at 2 µM (HeLa [11]): 1.1%
inhibition at 8 µM (HeLa [12]): 41%
inhibition at 2 µM (A-375 [13]): 13.2%
inhibition at 2 µM (SMMC-7721 [14]): 3.1%

Cc1ccc2nc(SCc3ccc(C(=O)Nc4ccccc4N)cc3)n(C)c(=O)c2c1
inhibition at 8 µM (A549 [1]): 33.9%
inhibition at 2 µM (A549 [2]): 18.2%
IC50 (A-375 [3]): 2570 nM
IC50 (SMMC-7721 [4]): 1670 nM
inhibition at 8 µM (A-375 [5]): 73.6%
inhibition at 8 µM (SMMC-7721 [6]): 75.7%
IC50 (HeLa [7]): 950 nM
IC50 (HCT-116 [8]): 2010 nM
inhibition at 2 µM (HCT-116 [9]): 49.2%
inhibition at 8 µM (HCT-116 [10]): 79.3%
inhibition at 2 µM (HeLa [11]): 63%
inhibition at 8 µM (HeLa [12]): 85.5%
inhibition at 2 µM (A-375 [13]): 44.6%
inhibition at 2 µM (SMMC-7721 [14]): 65.6%

COc1ccc2c(=O)n(-c3ccccc3C)c(SCc3ccc(C(=O)Nc4ccccc4N)cc3)nc2c1
inhibition at 8 µM (A549 [1]): 54.5%
inhibition at 2 µM (A549 [2]): 36.3%
IC50 (A-375 [3]): 2300 nM
IC50 (SMMC-7721 [4]): 5370 nM
inhibition at 8 µM (A-375 [5]): 83.6%
inhibition at 8 µM (SMMC-7721 [6]): 78.1%
IC50 (HCT-116 [8]): 1290 nM
inhibition at 2 µM (HCT-116 [9]): 73.5%
inhibition at 8 µM (HCT-116 [10]): 88.2%
inhibition at 2 µM (HeLa [11]): 23.6%
inhibition at 8 µM (HeLa [12]): 33.1%
inhibition at 2 µM (A-375 [13]): 39.1%
inhibition at 2 µM (SMMC-7721 [14]): 58.2%

CCCn1c(SCc2ccc(/C=C/C(=O)Nc3ccccc3N)cc2)nc2cc(Cl)ccc2c1=O
inhibition at 8 µM (A549 [1]): 61.5%
inhibition at 2 µM (A549 [2]): 34.3%
IC50 (A549 [15]): 3960 nM
inhibition at 8 µM (A-375 [5]): 48.2%
inhibition at 8 µM (SMMC-7721 [6]): 40.2%
inhibition at 2 µM (HCT-116 [9]): 18.2%
inhibition at 8 µM (HCT-116 [10]): 27.3%
inhibition at 2 µM (HeLa [11]): 32.7%
inhibition at 8 µM (HeLa [12]): 41.5%
inhibition at 2 µM (A-375 [13]): 20.5%
inhibition at 2 µM (SMMC-7721 [14]): 6.6%

From ChEMBL document CHEMBL4393680, “Design, synthesis and biological evaluation of novel thioquinazolinone-based 2-aminobenzamide derivatives as potent histone deacetylase (HDAC) inhibitors” (Eur J Med Chem, 2019)
